In patent publication US20040096481A1, “Pet food compositions having electrostatically charged ingredient” (priority 2002, published 2004):

Assay: Effect of negatively charged amino acid solutions on integrity of cat hair (scan microscope)
Conditions: 0.40 g cat hair in 100 g solution, 100° F., 24 hours, 810× magnification; for degree of hair damage, 0.125% solution: 0.125% amino acid solution diluted from 1.0% solution adjusted to pH 11.3
Description: In this example, various negatively charged amino acid solutions were prepared for testing on cat hair to determine how the solution affected the integrity of the hair. First, a 1.0% amino acid solution was prepared by mixing 5.0 g amino acid with 495 g of water. The resulting pH value of each amino acid solution at this point differed, based largely upon the different pK values for each amino acid. A sufficient quantity of sodium hydroxide solution (50.0%) was added to the 1.0% amino acid solution to adjust the pH to 11.3. Weaker amino acid solutions (0.5%, 0.25%, and 0.125%) were subsequently prepared by dilution of the 1.0% solution.
Approximately 0.40 g of cat hair were mixed with 100 g samples of each respective amino acid solution. The cat hair and amino acid solution were kept at 100° F. for 24 hours. Photographs of the cat hairs were taken with a Topcon Technology Company Model ISI-X408 electrical scan microscope at 810× magnification and the degree of hair damage and loss of identifying characteristics was noted.

Row | SMILES | degree of hair damage, 0.125% solution | other results
1 | CSCCC(N)C(=O)O (racemic) [DL-methionine] | No damage | –
2 | C[C@H](N)C(=O)O [Alanine] | Cuticle removed | –
3 | N[C@@H](CC(=O)O)C(=O)O [Aspartic acid] | Cuticle removed | –
4 | N[C@@H](CS)C(=O)O [Cysteine] | No damage | –
5 | N[C@@H](CCC(=O)O)C(=O)O [Glutamic acid] | Cuticle removed | –
6 | NCC(=O)O [Glycine] | Cuticle removed | degree of hair damage, 0.125% solution (listed as glycine): portions of the cuticle layer have been removed thereby exposing the inner cortex layer; degree of hair damage, 0.25% solution (0.25% amino acid solution diluted from 1.0% solution adjusted to pH 11.3): cuticle 14 has separated thereby forming a channel and exposing the hair cortex; degree of hair damage, 0.5% solution (0.5% amino acid solution diluted from 1.0% solution adjusted to pH 11.3): Portions of the hair cortex 18 have been completely dissolved; degree of hair damage, 1.0% solution (1.0% amino acid solution adjusted to pH 11.3): cuticle has been removed thereby exposing the hair cortex
7 | NCCCC[C@H](N)C(=O)O [Lysine] | No damage | –
8 | O=C(O)[C@@H]1CCCN1 [Proline] | Cuticle removed | –
